Results on one compound are retold here after patent EP4699605A1, “USE OF NOVEL COMPOUND FOR TREATING INTRACTABLE DISEASES” (YJ Cerapeutics Inc., priority 2023, dated 2024).

For one test, the system named is microglia. Nature of the test: Microglial activation in spinal cord of SNI model (OX-42 staining, p-p38MAPK Western blot). It counts as in vivo, Sprague-Dawley rats. On the procedure: To be used as a peripheral nerve injury animal model, a sciatic nerve injury (SNI) model was prepared (FIG. 1C). Specifically, 200 to 220 g of male adult Sprague-Dawley rats were anesthetized by intraperitoneal injection of chloral hydrate (500 mg/kg), and then three terminal branches (tibial, common peroneal, and sural nerves) of the right sciatic nerve were approached, and the tibia nerve and the peroneal nerve were tightly ligated with 4-0 silk, and neurectomy was performed at a distal 3 mm position of the ligation site. At this time, a Sham group was a group that exposed only the sciatic nerve without damage.
To analyze the activation of microglia in the spinal cord, which were known to play an important role in the induction/persistence of neuropathic pain, 4 weeks after nerve injury in the SNI animal model, the spinal cord of 4 and 5 lumbar vertebrae was stained with OX-42 to confirm changes in cell shape and intensity. […] The supernatant was transferred to a new microcentrifuge, the protein concentration was measured using a BCA kit, and samples for Western blot were prepared by adding a 1X sample buffer and boiling for 5 minutes. […]

A further test concerns inflammatory factors. The test is described as follows: Inflammatory cytokine and chemokine expression in bladder after SCI (RT-PCR, Western blot). It counts as in vivo, Sprague-Dawley rats. Particulars: bladder tissue after spinal cord injury. From the text:
To confirm the effect of YJ102 on the expression of inflammatory factors in the bladder after spinal cord injury, the expression of inflammatory cytokines and chemokines, COX-2, iNOS, IL-6, IL-1β, MIP-1α, MIP-1β, MIP-2α, and Gro-α in bladder tissue was confirmed by RT-PCR analysis and Western blot analysis using the primers in Table 2 above. In addition, even in the Raw 264.7 cell line, the expression was verified by RT-PCR analysis.

The test system of test [1] is neutrophils and macrophages. Nature of the test: Introduction of neutrophils and macrophages into the bladder after SCI (immunofluorescence). It counts as in vivo, Sprague-Dawley rats. The source says: When bladder dysfunction occurred due to spinal cord injury, cystitis, etc., a decrease in tight junction protein in the urothelium in contact with urine occurred, which increased the permeability of the bladder wall to introduce the harmful substances into the tissue, and caused the death of the urothelium serving as a barrier, and an increase in inflammatory response in the bladder. In order to determine what effect the compound YJ102 of the present disclosure had on these pathological processes, the expression of tight junction proteins ZO-1 and occludin was confirmed by Western blot analysis and immunofluorescence staining, and the introduction of neutrophils and macrophages into the bladder was confirmed by immunofluorescence staining. Specifically, the cut bladder tissue sections were frozen in liquid nitrogen, ground in a mortar and pestle to be completely lysed, and homogenized by adding Lysis Buffer [50 mM Tris-HCl (pH 7.4), 150 mM NaCl, 2 mM MgCl2, 0.1% NP40]. The homogenized tissue sections were transferred to a microcentrifuge tube, rock at 4°C for 20 minutes, and then centrifuged at 25,000 × g for 10 minutes. The supernatant was transferred to a new microcentrifuge, the protein concentrations were measured using a BCA kit, and then samples for Western blot were prepared by adding a 1X sample buffer and boiling for 5 minutes. […]

The test system of test [2] is IMQ psoriasis animal model. Nature of the test: Spleen hypertrophy in IMQ psoriasis animal model. It counts as in vivo, C57BL/6 mouse. Conditions: Day 6, vs Vehicle group. On the procedure: Psoriasis caused by excessive production of skin cells was a chronic skin disease associated with various factors, including autoimmune diseases, and its symptoms included red and thickened skin and abnormally occurring scaling. […] Specifically, the back region of a C57BL/6 mouse (male, 18 to 20 g, 8 weeks) (Daehan Biolink, Eumseong, Korea) was shaved to remove hair, and then applied with IMQ cream (83 mg/day) (5%) for consecutive 5 days from Day 0 to Day 4 to induce psoriasis-like skin inflammation, and a normal control mouse (Sham) was applied with Vaseline cream (FIG. 16A).
The spleen hypertrophy occurred in mice induced with psoriasis, the longitudinal diameter of the spleen in psoriasis patients was increased compared to that of non-psoriasis patients, and a correlation between the disease duration and the spleen diameter was reported. Therefore, on Day 6, the spleen of the mouse in each group was extracted and weighed to determine the degree of spleen hypertrophy.

A further test has as its system proNGF. The test is described as follows: NGF/proNGF expression in bladder after SCI (RT-PCR, Western blot). The format is in vivo, Sprague-Dawley rats. Conditions: bladder tissue after spinal cord injury. The procedure: In order to determine whether YJ102 affected the production of proNGF as a ligand of p75, the expression of proNGF in the bladder was confirmed by RT-PCR, Western blot analysis, and immunofluorescence staining. In addition, for further verification, a macrophage cell line Raw 264.7 (Korea Cell Line Bank, Seoul, Korea) was stimulated with 1 µg/ml of LPS, and the effect of YJ102 on the production of proNGF was investigated. At this time, YJ102 was dissolved in DMSO and treated 30 minutes before LPS treatment.
For orientation: Immunoblotting shows a protein as a band on a membrane.

For `CCc1ccc(N(C(=O)COC)c2nc3cc(Cl)ccc3o2)cc1` [YJ102], the “microglia activation changes (OX-42 intensity, activated morphology)” value with microglia (4 weeks after nerve injury, L4-L5 spinal cord, vs Vehicle) is listed as “significantly reduced”. Besides, the “amount of p-p38MAPK” value in the test with microglia (spinal cord, Western blot) was “significantly reduced”. Further, in the test on inflammatory factors, the “expression of COX-2, iNOS, IL-6, IL-1β, MIP-1α, MIP-1β, MIP-2α, and Gro-α” value is reported as “significantly reduced”. For the same compound, the “introduction of MPO-positive neutrophils into the bladder” value in test [1] (after spinal cord injury (day 1)) is given as “significantly inhibited”. Also, the “introduction of ED-1-positive macrophages into the bladder” value in test [1] (after spinal cord injury (day 7)) is on record as “significantly inhibited”. For the same compound, in test [2], the “size of the spleen” value is “significantly reduced” and the “weight of the spleen” value is recorded as “significantly reduced”. For the same compound, the “NGF mRNA expression” value in the test with proNGF (RT-PCR) is “significantly inhibited”. Also, in the test with proNGF (Western blot), the proNGF production entry is “significantly inhibited”.
